# Columns and labels:
# normal canines = assay: Hemodynamic efficacy in normal canines (pressure-volume loop analysis); type: in vivo, beagle dogs; settings: i.v. infusion, Dose Rate (μmol/kg/min): CXL-1020 100, (1) 50, (2) 100, (83) 65, (84) 77
# Method: The cardiovascular effects of nitroxyl donors were examined by means of pressure-volume (PV) curve (loops) analysis in conscious, sling-restrained beagle dogs. Animals were allowed free access to drinking water and a commercial canine diet under standard laboratory conditions. Fluorescent lighting was provided via an automatic timer for approximately 12 hours per day. On occasion, the dark cycle was interrupted intermittently due to study-related activities. Temperature and humidity were monitored and recorded daily and maintained to the maximum extent possible between 64° F. and 84° F. and 30% to 70%, respectively. The dogs were acclimated for a period of at least 1 week prior to surgery. Following surgery and recovery the animals were acclimated to sling restraint for a period up to 4.5 hours. Animals were fasted overnight prior to surgery. An indwelling venous catheter was placed in peripheral vein (e.g., cephalic) for administration of anesthetic. General anesthesia was induced intravenously (bolus) with buprenorphine (about 0.015 mg/kg) followed by an intravenous bolus of propofol (about 6 mg/kg). Additionally, a prophylactic antibiotic (cefazolin 20 to 50 mg/kg via i.v.) was given upon induction. […] Anesthesia was maintained with inhaled isoflurane (1% to 3%). Once a stable (surgical) plane of anesthesia had been established, a left-thoracotomy was performed (under strict aseptic conditions) and each animal was chronically instrumented with sono-micrometry crystals providing left-ventricular (LV) dimensions/volume. Additionally, a fluid-filled catheter and a solid-state monometer were placed in the left ventricle for pressure monitoring. A fluid-filled catheters was placed in the right ventricle (RV) and the aorta (Ao) for pressure monitoring/test article administration. […] The catheters/wires were aseptically tunneled and externalized between the scapulae. Over the course of the study, fluid-filled catheters were regularly (at least once weekly) flushed with a locking-solution in order to prevent both clotting and bacterial growth (2-3 mL of Taurolidine-Citrate solution, TCS-04; Access Technologies). Following the cardiovascular instrumentation, the right jugular vein was carefully exposed and cannulated with a bipolar pacing lead/catheter ([…]® Novus; Medtronic). Under fluoroscopic guidance, this pacing lead was advanced normograde into the right ventricle and actively affixed (screwed in) to the apical endocardium. The proximal end of the lead was secured to the pacing device (Kappa 900; Medtronic). Subsequently, the pacemaker was placed/secured in a subcutaneous pocket in the neck. Considering that the heart was exposed via a thoracotomy, a bipolar pacing wire was secured in the right ventricular mid-myocardium. This pacing lead was tunneled/externalized between the scapulae, and used in conjunction with an external impulse generator/pacemaker. The implanted endocardial pacemaker was used as a back-up to the external/epicardial pacemaker. Prior to closure of the chest from the thoracotomy, a chest tube was placed for drainage of any fluid and/or gas that accumulated from the surgical procedure. The tube was aspirated twice daily until the amount of fluid removed was less than 35 mL per aspiration in an approximately 24 hour period. The chest tube was then removed. All animals were administered a prophylactic antibiotic (cefazolin 20 to 50 mg/kg via i.v.) and pain medication (meloxicam at about 0.2 mg/kg via i.v.). If necessary, an additional analgesic was also administered which included a fentanyl patch (25 to 50 mcg/hour). All surgical incisions were closed in layers; the underlying musculature was closed with absorbable sutures and the skin was closed with staples. Following surgery, the animals were allowed to recover for at least 14 days. Cephalexin (20 to 50 mg/kg) was administered orally BID for at least 7 days and meloxicam (0.1 mg/kg) was administered SID orally or subcutaneously for at least 2 days after surgery. […]
# dogs = assay: Toxicological profile of compositions formulated at pH 4 or pH 6, 24 hour infusion at 3 μg/kg/min; type: in vivo; settings: FIG. 4; for effect of increasing infusate pH from approximately 4 to approximately 6 on toxicology: 1:1 molar donor:CAPTISOL, infused at 3 μg/kg/min
# Method: For samples at a pH of 4, the compositions were prepared by admixing a 1:1 molar ratio of the nitroxyl donor:CAPTISOL®, lyophilizing the admixture, then diluting the lyophilized admixture into D5W. For samples at a pH of 6, the compositions were prepared by admixing a 1:1 molar ratio of the nitroxyl donor:CAPTISOL®, lyophilizing the admixture, then diluting the lyophilized admixture into D5W with 5 mM potassium phosphate. Compounds were infused at a rate of 3 μg/kg/min.
# [1] = In vitro stability (half-life) in human plasma; type: in vitro ADME; settings: human plasma pH 7.4 with anticoagulant, 37° C.; for T1/2 (minutes) Human: 5 μM; for half-life at 5 μM: male, read-out: T1/2 (minutes) Human
# Method: (§1) Certain compounds from Tables 1 and 2 and CXL-1020 were tested for their stability in phosphate buffered saline (PBS) and plasma. The assay system comprised (i) PBS, or plasma from rat, dog or human (at least 3 donors, male, pooled) at pH 7.4, and (ii) for tests conducted in plasma, an anticoagulant (sodium heparin or sodium citrate). Each test compound (5 μM) was incubated in PBS or plasma at 37° C. on a THERMOMIXER® with shaking. Three samples (n=3) were taken at each of seven sampling time points: 0, 10, 30, 60, 90, 180 and 360 minutes. The samples were immediately combined with 3 volumes (i.e., 3 times the volume of PBS or plasma) of acetonitrile containing 1% formic acid and an internal standard to terminate the reaction. AB SCIEX API 3000 LC-MS/MS analysis of the test compounds was performed without a standard curve. Half-lives (T1/2) of the test compounds were determined from graphs of the percent remaining values using the peak area response ratio. For compounds tested multiple times, the value provided in the Table represents an average of the replicate assays.
# [2] = In vitro stability (half-life) in phosphate buffered saline (PBS) pH 7.4; type: physicochemical; settings: pH 7.4, 5 μM, PBS pH 7.4, 37° C., read-out: T1/2 (minutes) PBS
# Method in brief: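 Compounds at 5 μM were incubated at 37° C in PBS or in rat, dog or pooled human plasma (heparin or citrate) at pH 7.4. Triplicates were sampled from 0 to 360 minutes and quenched in acetonitrile/formic acid. LC-MS/MS percent remaining gave T1/2, averaged over replicate runs.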
# [3] = In vitro stability (half-life) in rat plasma; type: in vitro ADME; settings: male, rat, plasma, pH 7.4, 5 μM, rat plasma pH 7.4 with anticoagulant, 37° C.; read-out: T1/2 (minutes) Rat
# Method: as §1
# [4] = In vitro stability (half-life) in dog plasma; type: in vitro ADME; settings: male, dog, plasma, pH 7.4, 5 μM, dog plasma pH 7.4 with anticoagulant, 37° C.; read-out: T1/2 (minutes) Dog
# Method: as §1
Compound,EDV (normal canines) [% Change from Baseline],ESP (normal canines) [% Change from Baseline],ESPVR (normal canines) [% Change from Baseline],HR (normal canines) [% Change from Baseline],PRSW (normal canines) [% Change from Baseline],SW (normal canines) [% Change from Baseline],Tau (normal canines) [% Change from Baseline],effect of increasing infusate pH from approximately 4 to approximately 6 on toxicology (dogs),improvement of inflammatory profile on increasing infusate pH from 4 to 6 (dogs; dogs),T1/2 (minutes) Human [1] [min],half-life at 5 μM [2] [min],half-life at 5 μM [3] [min],half-life at 5 μM [4] [min],half-life at 5 μM [1] [min]
"CS(=O)(=O)c1ccccc1S(=O)(=O)NO [CXL-1020, N-hydroxy-2-methanesulfonylbenzene-1-sulfonamide, reference compound]",−20.51 ± 7.63,−17.79 ± 3.09,28.25 ± 8.69,6.71 ± 4.72,12.60 ± 2.96,−13.96 ± 5.51,−6.58 ± 4.53,improved the toxicology,approximately 3 fold,–,–,–,–,–
"Cc1ccc(S(=O)(=O)NO)o1 [Compound 1, N-Hydroxy-5-methylfuran-2-sulfonamide]",−6 ± 2,−18 ± 2,19 ± 1,−4 ± 2,12 ± 1,−11 ± 4,−6 ± 1,–,–,65,–,–,–,–
"CS(=O)(=O)c1cccc(S(=O)(=O)NO)c1 [Compound 2, N-Hydroxy-3-methanesulfonylbenzene-1-sulfonamide]",−17.41 ± 1.58,−15.22 ± 2.39,25.87 ± 5.04,−6.17 ± 5.58,12.88 ± 1.12,−17.56 ± 2.66,−6.40 ± 7.11,improved the toxicology,–,37,–,–,–,–
"O=S(=O)(NO)c1ccco1 [Compound 83, N-Hydroxyfuran-2-sulfonamide]",−16.88 ± 1.69,−21.99 ± 3.32,29.33 ± 8.36,2.89 ± 2.94,19.79 ± 3.39,−19.18 ± 6.70,−10.10 ± 1.56,–,–,–,37,43,38,16
"Cc1ccc(S(=O)(=O)NO)s1 [Compound 84, N-Hydroxy-5-methylthiophene-2-sulfonamide]",−10.99 ± 2.33,−16.85 ± 2.33,50.71 ± 8.14,4.31 ± 2.98,17.70 ± 2.35,−13.98 ± 1.14,−9.60 ± 6.06,–,–,–,125,65,55,60
"Cn1ccc(S(=O)(=O)NO)n1 [Compound 85, N-Hydroxy-1-methyl-1H-pyrazole-3-sulfonamide]",–,–,–,–,–,–,–,–,–,–,59,–,72,–

# Source: patent publication US10245249B2, “Pharmaceutical compositions comprising nitroxyl donors” (Cardioxyl Pharmaceuticals, Inc., priority 2013, dated 2019)
